Measured values as given in PubChem BioAssay AID330 (DTP/NCI, 2004).
Where “and” joins values, the source holds several entries; their conditions need not be identical. Equal entries are not always repeated. Toxic doses and inconclusive results are not listed. How the source made its calls: active means survival T/C of 150% or more; inactive means T/C below 125% in these data.

System: P388 leukemia ip, CD2F1 mice, survival T/C
Test: NCI In Vivo Anticancer Drug Screen. Data for tumor model P388 Leukemia (intraperitoneal) in CD2F1 (CDF1) mice
Conditions: endpoint: median survival time, higher = longer survival
Summary of the method: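 Mice carrying the transplanted tumor received test compound or vehicle. Survival was recorded in each group, and the value is the treated-group measurement divided by that of the vehicle-treated control group.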

[1] = dose: 50.0 mg/kg/injection, schedule: Q01DX009 (ip), vehicle: Klucel (hydroxypropylcellulose) (HPC)
[2] = dose: 100.0 mg/kg/injection, schedule: Q01DX009 (ip), vehicle: Klucel (hydroxypropylcellulose) (HPC)
[3] = dose: 200.0 mg/kg/injection, schedule: Q01DX009 (ip), vehicle: Klucel (hydroxypropylcellulose) (HPC)
[4] = dose: 50.0 mg/kg/injection, schedule: Q01DX009 (ip), vehicle: saline with Tween-80
[5] = dose: 100.0 mg/kg/injection, schedule: Q01DX009 (ip), vehicle: saline with Tween-80
[6] = dose: 200.0 mg/kg/injection, schedule: Q01DX009 (ip), vehicle: saline with Tween-80
[7] = dose: 50.0 mg/kg/injection, schedule: Q01DX009 (ip), vehicle: saline
[8] = dose: 100.0 mg/kg/injection, schedule: Q01DX009 (ip), vehicle: saline
[9] = dose: 200.0 mg/kg/injection, schedule: Q01DX009 (ip), vehicle: saline
[10] = dose: 60.0 mg/kg/injection, schedule: Q01DX005 (ip), vehicle: saline with Tween-80
[11] = dose: 120.0 mg/kg/injection, schedule: Q01DX005 (ip), vehicle: saline with Tween-80
[12] = dose: 240.0 mg/kg/injection, schedule: Q01DX005 (ip), vehicle: saline with Tween-80
[13] = dose: 50.0 mg/kg/injection, schedule: Q01DX005 (ip), vehicle: saline with Tween-80
[14] = dose: 100.0 mg/kg/injection, schedule: Q01DX005 (ip), vehicle: saline with Tween-80
[15] = dose: 50.0 mg/kg/injection, schedule: Q01DX005 (ip), vehicle: Klucel (hydroxypropylcellulose) (HPC)
[16] = dose: 100.0 mg/kg/injection, schedule: Q01DX005 (ip), vehicle: Klucel (hydroxypropylcellulose) (HPC)
[17] = dose: 200.0 mg/kg/injection, schedule: Q01DX005 (ip), vehicle: Klucel (hydroxypropylcellulose) (HPC)
[18] = dose: 25.0 mg/kg/injection, schedule: Q01DX009 (ip), vehicle: saline with Tween-80

Measured: T/C

CNCCC(Oc1ccc(C(F)(F)F)cc1)c1ccccc1 (centres undefined)
inactive: dose: 25.0 mg/kg/injection, schedule: Q04DX002 (ip), vehicle: saline with Tween-80 106 % of control | dose: 50.0 mg/kg/injection, schedule: Q04DX002 (ip), vehicle: saline with Tween-80 106 % of control | dose: 100.0 mg/kg/injection, schedule: Q04DX002 (ip), vehicle: saline with Tween-80 106 % of control

CCCCCCC1(/C=C\c2ccc(Cl)c(Cl)c2)OCCO1
inactive: [1] 93 % of control | [2] 108 % of control | [3] 100 % of control

CN(C)CC(CN(C)C)C(=O)c1ccc(Oc2ccc(Cl)c(Cl)c2)cc1
inactive: dose: 1.88 mg/kg/injection, schedule: Q01DX005 (ip), vehicle: saline 107 % of control | dose: 3.75 mg/kg/injection, schedule: Q01DX005 (ip), vehicle: saline 109 % of control | dose: 7.5 mg/kg/injection, schedule: Q01DX005 (ip), vehicle: saline 117 % of control

CCCCCCCCCCCCCCC(C(=O)[O-])[n+]1ccccc1 (centres undefined)
inactive: dose: 15.0 mg/kg/injection, schedule: Q01DX005 (ip), vehicle: saline 114 % of control | dose: 30.0 mg/kg/injection, schedule: Q01DX005 (ip), vehicle: saline 96 % of control | dose: 60.0 mg/kg/injection, schedule: Q01DX005 (ip), vehicle: saline 110 % of control

O=C(O)CNC(=O)C(F)(F)F
inactive: [4] 93 % of control | [5] 91 % of control | [6] 95 % of control

c1ccc(Cc2cc(-c3ccccc3)[nH]c2-c2ccccc2)cc1
inactive: [7] 100 % of control | [8] 104 % of control | [9] 90 % of control

N#CC(C(=O)CCCC(=O)Nc1ccccc1[N+](=O)[O-])c1ccc(Cl)cc1Cl (centres undefined)
inactive: [10] 106 % of control | [11] 104 % of control | [12] 101 % of control

COC(=O)C1=NOC(COc2ccc([N+](=O)[O-])cc2)C1 (centres undefined)
inactive: [10] 100 % of control | [11] 93 % of control | [12] 86 % of control

CC(C)CC(NC(=O)OCc1ccccc1)C(=O)O (centres undefined)
inactive: [13] 105 % of control | [14] 101 % of control

O=c1[nH]c(=S)[nH]c2c(=O)[nH]c(=S)[nH]c12
inactive: dose: 12.5 mg/kg/injection, schedule: Q01DX009 (ip), vehicle: Klucel (hydroxypropylcellulose) (HPC) 107 % of control | dose: 25.0 mg/kg/injection, schedule: Q01DX009 (ip), vehicle: Klucel (hydroxypropylcellulose) (HPC) 101 % of control | [1] 101 % of control and 111 % of control

CCCC[As](CCCC)SC1CC(OC(=O)c2ccccc2)C(OC(=O)c2ccccc2)C(COC(=O)c2ccccc2)O1 (centres undefined)
inactive: dose: 6.25 mg/kg/injection, schedule: Q01DX009 (ip), vehicle: saline + alcohol 108 % of control | dose: 12.5 mg/kg/injection, schedule: Q01DX009 (ip), vehicle: saline + alcohol 95 % of control | dose: 25.0 mg/kg/injection, schedule: Q01DX009 (ip), vehicle: saline + alcohol 105 % of control | dose: 50.0 mg/kg/injection, schedule: Q01DX009 (ip), vehicle: saline + alcohol 100 % of control

O=[N+]([O-])c1cc2c(c([N+](=O)[O-])c1)OC(C(Cl)(Cl)Cl)OC2C(Cl)(Cl)Cl (centres undefined)
inactive: [15] 107 % of control | [16] 103 % of control | [17] 117 % of control

CCCCCCCCCCCCCCCCSc1ccc(N=Cc2ccc(N(CC)CC#N)cc2)cc1
inactive: [4] 97 % of control | [5] 94 % of control

CC(C)(O)c1cc(=O)n(-c2ccccc2)[nH]1
inactive: [15] 102 % of control | [16] 101 % of control | [17] 105 % of control

COc1cc(OC)c(OC)cc1/C=N/NC(=O)N/N=C/c1cc(OC)c(OC)cc1OC
inactive: dose: 12.5 mg/kg/injection, schedule: Q01DX009 (ip), vehicle: distilled water + Tween-80 96 % of control | dose: 25.0 mg/kg/injection, schedule: Q01DX009 (ip), vehicle: distilled water + Tween-80 96 % of control | dose: 50.0 mg/kg/injection, schedule: Q01DX009 (ip), vehicle: distilled water + Tween-80 108 % of control | dose: 100.0 mg/kg/injection, schedule: Q01DX009 (ip), vehicle: distilled water + Tween-80 99 % of control | dose: 200.0 mg/kg/injection, schedule: Q01DX009 (ip), vehicle: distilled water + Tween-80 94 % of control | dose: 400.0 mg/kg/injection, schedule: Q01DX009 (ip), vehicle: distilled water + Tween-80 86 % of control

O=C(Nc1ccc(N=C=S)cc1Cl)c1cc(Br)cc(Br)c1O
inactive: dose: 25.0 mg/kg/injection, schedule: Q01DX001 (ip), vehicle: Klucel (hydroxypropylcellulose) (HPC) 106 % of control | dose: 50.0 mg/kg/injection, schedule: Q01DX001 (ip), vehicle: Klucel (hydroxypropylcellulose) (HPC) 100 % of control | dose: 100.0 mg/kg/injection, schedule: Q01DX001 (ip), vehicle: Klucel (hydroxypropylcellulose) (HPC) 92 % of control and 95 % of control

CNC(=O)OCc1cnc2ccc(OC)cc2c1COC(=O)NC
inactive: [15] 92 % of control | [16] 99 % of control | [17] 102 % of control

CC(=O)NC1C(=O)CC(c2ccccc2)N(C)C1c1ccccc1 (centres undefined)
inactive: [15] 101 % of control | [16] 97 % of control | [17] 90 % of control

O=C(NN1C(=O)CSC1c1ccc(Cl)cc1Cl)c1ccncc1 (centres undefined)
inactive: dose: 25.0 mg/kg/injection, schedule: Q01DX005 (ip), vehicle: saline with Tween-80 101 % of control | [13] 98 % of control | [14] 93 % of control | [11] 100 % of control | [12] 90 % of control

CCSc1nc(C)cc(Cl)n1
inactive: dose: 50.0 mg/kg/injection, schedule: Q04DX003 (ip), vehicle: saline with Tween-80 100 % of control | dose: 100.0 mg/kg/injection, schedule: Q04DX003 (ip), vehicle: saline with Tween-80 100 % of control | dose: 200.0 mg/kg/injection, schedule: Q04DX003 (ip), vehicle: saline with Tween-80 113 % of control

S=C(SCc1cc(Cl)cc2c1OCOC2)N1CCSCC1
inactive: [10] 105 % of control | [11] 92 % of control | [12] 92 % of control

CCOc1cccc(/C=C2\NC(=S)N(c3ccccc3)C2=O)c1O
inactive: [15] 101 % of control | [16] 93 % of control | [17] 99 % of control

Cc1cs/c(=N/N=C2C=CC(=O)C=C2)n1O
inactive: [1] 102 % of control | [2] 107 % of control | [3] 101 % of control

CCN(CC)CCCNc1nccc2c(OC)cccc12
inactive: dose: 25.0 mg/kg/injection, schedule: Q01DX005 (ip), vehicle: saline 93 % of control | dose: 50.0 mg/kg/injection, schedule: Q01DX005 (ip), vehicle: saline 89 % of control

N=C(N)SCN1C(=O)c2ccccc2C1=O
inactive: dose: 6.25 mg/kg/injection, schedule: Q01DX009 (ip), vehicle: saline with Tween-80 114 % of control | dose: 12.5 mg/kg/injection, schedule: Q01DX009 (ip), vehicle: saline with Tween-80 107 % of control | [18] 123 % of control | [4] 122 % of control

C=C(C)[C@@H]1CC[C@]2(C(=O)O)CC[C@@]3(C)[C@]4(C)CC[C@@H]5[C@](C)(CC[C@@H](O)[C@@]5(C)C(=O)O)[C@H]4CC[C@]3(C)[C@@H]12
inactive: dose: 15.0 mg/kg/injection, schedule: Q01DX005 (ip), vehicle: Klucel (hydroxypropylcellulose) (HPC) 104 % of control | dose: 30.0 mg/kg/injection, schedule: Q01DX005 (ip), vehicle: Klucel (hydroxypropylcellulose) (HPC) 117 % of control | dose: 60.0 mg/kg/injection, schedule: Q01DX005 (ip), vehicle: Klucel (hydroxypropylcellulose) (HPC) 117 % of control

FC(F)(F)c1nnc(-c2ccccc2)nn1
inactive: dose: 100.0 mg/kg/injection, schedule: Q04DX002 (ip), vehicle: Klucel (hydroxypropylcellulose) (HPC) 100 % of control | dose: 200.0 mg/kg/injection, schedule: Q04DX002 (ip), vehicle: Klucel (hydroxypropylcellulose) (HPC) 104 % of control

CS(=O)(=O)N/N=C1/C=C2C/C(=N\NS(C)(=O)=O)C=C2C1
inactive: [15] 92 % of control | [16] 96 % of control | [17] 95 % of control

CC(=O)c1ccc(C(C)=O)cc1
inactive: [7] 101 % of control | [8] 95 % of control | [9] 109 % of control

CC(=O)Nc1ccc(/C=N/NC(=O)CNC(=O)Nc2cccc(Cl)c2Cl)cc1
inactive: [18] 99 % of control | [4] 97 % of control | [5] 89 % of control | [6] 93 % of control
